Laboratory results published in patent US12501899B2, “Mite infestation treatment” (priority 2019, dated 2025).
Structures can show the parent of a compound that is named as a salt. Where two headings read alike, the source gives them in different places.

Tests used:
Ixodes ricinus = experiment: Oral acaricidal test on ticks in membrane feeding wells with treated blood; assay type: in vivo; conditions: for mortality at 1 ppm / mortality at 10 ppm / mortality at 100 ppm: Ixodes ricinus, po
Method: A laboratory study was conducted to determine the oral acaricidal properties of three compounds according to the invention (SN0305, SN0306 and SN0307) against Ixodes ricinus. Each compound was tested at 1, 10 and 100 ppm, and compared to a negative control corresponding to solvent alone (0.1% DMSO). Amitraz at 100 ppm was used as a positive control.
The Ixodes ricinus ticks (nymphs and adults) were placed for 24 hours on a membrane in feeding wells containing blood mixed with the tested compounds. Tick mortality (number of dead, moribund, or unaffected ticks in each well), attachment to the membrane (number of ticks attached/detached in each well), and the behavior (presence or absence of twitches) were examined 1, 3, 6, 12, 24, 48, 72, and 96 hours after the onset of tick exposure to the compounds.
Ticks (Ixodes ricinus) were collected. Collected adult females were kept separate from the nymphs and both were placed in sterile tubes in a humidity chamber to provide ˜80% humidity and 17° C. Only healthy ticks (females/nymphs) were chosen for the experiment.
Batches of 12 adults or nymphs were inserted into the feeding wells. After about 24 hours, their attachment was examined with a brush.
The efficiency of three compounds (SN0305, SN0306 and SN0307), each tested at three concentrations (1, 10, 100 ppm), was compared to the solvent control (0.1% DMSO, Sigma-Aldrich D-5879; Lot 101K0028) and to the positive control (Amitraze at 100 ppm).
Silicone-coated membranes with a thickness comprised between 110 and 140 μm were used for the construction of the feeding units.
Feeding units (sterilized acrylic glass tubes) were placed in feeding wells made of sterilized six-well plates.
3.1 ml of sterile 10^−3 M ATP-enriched blood was applied to each feeding well. Feeding wells were then inserted into a heated water bath (FIG. 12) and maintained at 37° C.±2° C.
Stock solutions of 100,000 ppm were prepared and tenth dilutions were carried out in 0.1% DMSO to reach the desired concentrations. After tick attachment (24 hours after placing the ticks in the feeding wells), 3.1 μl of the solutions were added to each feeding well containing 3.1 ml of blood. Blood was changed after 12 hours with fresh supplementation of the compounds to be tested. The ticks were exposed to the product for a total of 24 hours, after which the blood was again changed to fresh, untreated blood.
Tick mortality (number of dead, moribund or unaffected ticks in each well), attachment (number of attached/detached ticks in each well) and behavior (presence, absence and intensity of convulsions) were examined 1, 3, 6, 12, 24, 48, 72, and 96 hours after the start of tick exposure to the compound.

Varroa destructor = conditions: after 24 hours
Method: About 300 bees (Apis mellifera) infected with Varroa destructor were taken from a hive superinfected with Varroa destructor. The bees were then placed in a device allowing to detach Varroa mites attached to the bees (device described in Community model n° 003419415-0001) filled with icing sugar. The device was stirred for 2 minutes to sample the Varroa mites attached to the bees. The icing sugar allows to interfere between the bee and the Varroa mite that was attached thereto. Varroa mites were harvested with icing sugar because they pass through the holes in the device, unlike bees. The Varroa mites were then separated from the icing sugar.
The Varroa mites thus recovered were dispatched in boxes (10 Varroa mites per box).
The bees were then dispatched in the boxes (10 per box).
The bees were then put to sleep for a few minutes using CO2 (flow of 3 liters for 20 seconds) in order to deposit 1 μL of compound to be tested on their thorax using a pipette. It should be noted that the bees which received romifidine hydrochloride at a concentration of 10 μg/μL received 2 μL of product. The bees were unconscious for the time the compound to be tested was deposited, that is to say around three minutes, then they woke up.
After thoracic deposition of the compound to be tested, the 10 bees from the same box were transferred to a box containing the 10 Varroa mites (cf. “Preparation of Varroa mites” above). Liquid sugar was left in each of the boxes to feed the bees during the observations. The series of boxes was then placed in an oven at […] with a humidity of 50% in order to approximate hive conditions as closely as possible.
The mortality of Varroa mites and bees was then monitored 5 minutes, 2 hours, 4 hours and 24 hours after application of the compound to be tested to the bees. Dead Varroa mites correspond to Varroa mites detached from the bees. Dead bees correspond to bees which no longer move and which are often placed on their thorax.
The following compositions were applied to the thorax of the bees: • Solvent, • Amitraz at 1 μg/μL in acetone, • Clonidine hydrochloride at 100 μg/μL, 10 μg/μL, 1 μg/μL and 0.1 μg/μL in methanol, • Detomidine hydrochloride monohydrate at 1 μg/μL in methanol, • Dexmedetomidine hydrochloride at 100 μg/μL, 10 μg/μL, 1 μg/μL and 0.1 μg/μL in methanol, • Romifidine hydrochloride at 10 μg/μL and at 5 μg/μL in methanol, • Tizanidine hydrochloride at 1 μg/μL in methanol, • Medetomidine hydrochloride at 0.1 μg/μL in ethanol, • Levomedetomidine hydrochloride at 100 μg/μL, 10 μg/μL, 1 μg/μL and 0.1 μg/μL in methanol, • Octopamine at 1 μg/μL in ethanol. Results

Cc1cccc([C@H](C)c2c[nH]cn2)c1C [Dexmedetomidine hydrochloride, (S)-4-[1-(2,3-dimethylphenyl)-ethyl]-1H-imidazole] was tested, and the “effect in terms of tick detachment (in words)” value (Ixodes ricinus; 1, 10, 100 ppm, nymphs and adults) was “very limited effect”, the “detached nymphs in a replica” value (Ixodes ricinus; 1 ppm, nymphs) was 1 and the “detached adult ticks in a replica” value (Ixodes ricinus; 100 ppm, adult ticks) was 1. The mortality at 1 ppm (Ixodes ricinus; adult ticks, 1 ppm, 1 h, read-out: average percentage of adult tick mortality (moribund or dead adult ticks)) was 0%, the mortality at 1 ppm (Ixodes ricinus; adult ticks, 1 ppm, 3 h, read-out: average percentage of adult tick mortality (moribund or dead adult ticks)) was 0% and the mortality at 1 ppm (Ixodes ricinus; adult ticks, 1 ppm, 6 h, read-out: average percentage of adult tick mortality (moribund or dead adult ticks)) was 3.1%. The mortality at 1 ppm (Ixodes ricinus; adult ticks, 1 ppm, 12 h, read-out: average percentage of adult tick mortality (moribund or dead adult ticks)) was 3.1%, the mortality at 1 ppm (Ixodes ricinus; adult ticks, 1 ppm, 24 h, read-out: average percentage of adult tick mortality (moribund or dead adult ticks)) was 64.2% and the mortality at 1 ppm (Ixodes ricinus; adult ticks, 1 ppm, 48 h, read-out: average percentage of adult tick mortality (moribund or dead adult ticks)) was 88.2%. It also gave a mortality at 1 ppm (Ixodes ricinus; adult ticks, 1 ppm, 72 h, read-out: average percentage of adult tick mortality (moribund or dead adult ticks)) of 100%, a mortality at 1 ppm (Ixodes ricinus; adult ticks, 1 ppm, 96 h, read-out: average percentage of adult tick mortality (moribund or dead adult ticks)) of 100% and a mortality at 10 ppm (Ixodes ricinus; adult ticks, 1 h, read-out: average percentage of adult tick mortality (moribund or dead adult ticks)) of 0%. For the same compound, the mortality at 10 ppm (Ixodes ricinus; adult ticks, 3 h, read-out: average percentage of adult tick mortality (moribund or dead adult ticks)) was 0%, the mortality at 10 ppm (Ixodes ricinus; adult ticks, 6 h, read-out: average percentage of adult tick mortality (moribund or dead adult ticks)) was 5.6% and the mortality at 10 ppm (Ixodes ricinus; adult ticks, 12 h, read-out: average percentage of adult tick mortality (moribund or dead adult ticks)) was 11.1%. For the same compound, the mortality at 10 ppm (Ixodes ricinus; adult ticks, 24 h, read-out: average percentage of adult tick mortality (moribund or dead adult ticks)) was 57.3%, the mortality at 10 ppm (Ixodes ricinus; adult ticks, 48 h, read-out: average percentage of adult tick mortality (moribund or dead adult ticks)) was 79.5% and the mortality at 10 ppm (Ixodes ricinus; adult ticks, 72 h, read-out: average percentage of adult tick mortality (moribund or dead adult ticks)) was 96.9%. For the same compound, the mortality at 10 ppm (Ixodes ricinus; adult ticks, 96 h, read-out: average percentage of adult tick mortality (moribund or dead adult ticks)) was 100%, the mortality at 100 ppm (Ixodes ricinus; adult ticks, 100 ppm, 1 h, read-out: average percentage of adult tick mortality (moribund or dead adult ticks)) was 0% and the mortality at 100 ppm (Ixodes ricinus; adult ticks, 100 ppm, 3 h, read-out: average percentage of adult tick mortality (moribund or dead adult ticks)) was 0%. The mortality at 100 ppm (Ixodes ricinus; adult ticks, 100 ppm, 6 h, read-out: average percentage of adult tick mortality (moribund or dead adult ticks)) was 5.9%, the mortality at 100 ppm (Ixodes ricinus; adult ticks, 100 ppm, 12 h, read-out: average percentage of adult tick mortality (moribund or dead adult ticks)) was 11.8% and the mortality at 100 ppm (Ixodes ricinus; adult ticks, 100 ppm, 24 h, read-out: average percentage of adult tick mortality (moribund or dead adult ticks)) was 63.9%. For the same compound, the mortality at 100 ppm (Ixodes ricinus; adult ticks, 100 ppm, 48 h, read-out: average percentage of adult tick mortality (moribund or dead adult ticks)) was 76.4%, the mortality at 100 ppm (Ixodes ricinus; adult ticks, 100 ppm, 72 h, read-out: average percentage of adult tick mortality (moribund or dead adult ticks)) was 91.3% and the mortality at 100 ppm (Ixodes ricinus; adult ticks, 100 ppm, 96 h, read-out: average percentage of adult tick mortality (moribund or dead adult ticks)) was 100%. It also gave a mortality at 1 ppm (Ixodes ricinus; nymphs, 1 ppm, 1 h, read-out: average percentage of mortality of tick nymphs (moribund or dead nymphs)) of 0%, a mortality at 1 ppm (Ixodes ricinus; nymphs, 1 ppm, 3 h, read-out: average percentage of mortality of tick nymphs (moribund or dead nymphs)) of 0% and a mortality at 1 ppm (Ixodes ricinus; nymphs, 1 ppm, 6 h, read-out: average percentage of mortality of tick nymphs (moribund or dead nymphs)) of 13.8%. For the same compound, the mortality at 1 ppm (Ixodes ricinus; nymphs, 1 ppm, 12 h, read-out: average percentage of mortality of tick nymphs (moribund or dead nymphs)) was 31.3%, the mortality at 1 ppm (Ixodes ricinus; nymphs, 1 ppm, 24 h, read-out: average percentage of mortality of tick nymphs (moribund or dead nymphs)) was 58.9% and the mortality at 1 ppm (Ixodes ricinus; nymphs, 1 ppm, 48 h, read-out: average percentage of mortality of tick nymphs (moribund or dead nymphs)) was 85.7%. It also gave a mortality at 1 ppm (Ixodes ricinus; nymphs, 1 ppm, 72 h, read-out: average percentage of mortality of tick nymphs (moribund or dead nymphs)) of 100%, a mortality at 1 ppm (Ixodes ricinus; nymphs, 1 ppm, 96 h, read-out: average percentage of mortality of tick nymphs (moribund or dead nymphs)) of 100% and a mortality at 10 ppm (Ixodes ricinus; nymphs, 1 h, read-out: average percentage of mortality of tick nymphs (moribund or dead nymphs)) of 0%. It also gave a mortality at 10 ppm (Ixodes ricinus; nymphs, 3 h, read-out: average percentage of mortality of tick nymphs (moribund or dead nymphs)) of 9.2%, a mortality at 10 ppm (Ixodes ricinus; nymphs, 6 h, read-out: average percentage of mortality of tick nymphs (moribund or dead nymphs)) of 24.9% and a mortality at 10 ppm (Ixodes ricinus; nymphs, 12 h, read-out: average percentage of mortality of tick nymphs (moribund or dead nymphs)) of 48.3%. The mortality at 10 ppm (Ixodes ricinus; nymphs, 24 h, read-out: average percentage of mortality of tick nymphs (moribund or dead nymphs)) was 83%, the mortality at 10 ppm (Ixodes ricinus; nymphs, 48 h, read-out: average percentage of mortality of tick nymphs (moribund or dead nymphs)) was 96.9% and the mortality at 10 ppm (Ixodes ricinus; nymphs, 72 h, read-out: average percentage of mortality of tick nymphs (moribund or dead nymphs)) was 100%. The mortality at 10 ppm (Ixodes ricinus; nymphs, 96 h, read-out: average percentage of mortality of tick nymphs (moribund or dead nymphs)) was 100%, the mortality at 100 ppm (Ixodes ricinus; nymphs, 100 ppm, 1 h, read-out: average percentage of mortality of tick nymphs (moribund or dead nymphs)) was 0% and the mortality at 100 ppm (Ixodes ricinus; nymphs, 100 ppm, 3 h, read-out: average percentage of mortality of tick nymphs (moribund or dead nymphs)) was 13.3%. The mortality at 100 ppm (Ixodes ricinus; nymphs, 100 ppm, 6 h, read-out: average percentage of mortality of tick nymphs (moribund or dead nymphs)) was 33%, the mortality at 100 ppm (Ixodes ricinus; nymphs, 100 ppm, 12 h, read-out: average percentage of mortality of tick nymphs (moribund or dead nymphs)) was 59% and the mortality at 100 ppm (Ixodes ricinus; nymphs, 100 ppm, 24 h, read-out: average percentage of mortality of tick nymphs (moribund or dead nymphs)) was 92.9%. The mortality at 100 ppm (Ixodes ricinus; nymphs, 100 ppm, 48 h, read-out: average percentage of mortality of tick nymphs (moribund or dead nymphs)) was 100%, the mortality at 100 ppm (Ixodes ricinus; nymphs, 100 ppm, 72 h, read-out: average percentage of mortality of tick nymphs (moribund or dead nymphs)) was 100% and the mortality at 100 ppm (Ixodes ricinus; nymphs, 100 ppm, 96 h, read-out: average percentage of mortality of tick nymphs (moribund or dead nymphs)) was 100%. The “ticks affected (convulsion, morbidity or death of ticks)” value (Ixodes ricinus; from 1 hour of exposure, regardless of the concentration tested (1, 10, 100 ppm)) was 100%, the “mortality for Varroa mites” value (Varroa destructor; 0.1 μg/μL) was 100% and the “mortality for Varroa mites” value (Varroa destructor; 10 μg/μL) was 100%.
